Assay results as given in PubChem BioAssay AID248 (DTP/NCI, 2004).
Several values for one entry are separate records, joined by “and”; a condition that tells them apart may be missing. Equal entries are not always repeated. Inconclusive results and toxic doses are left out.

System: L1210 leukemia ip in BDF1 mice, survival T/C
Assay: NCI In Vivo Anticancer Drug Screen. Data for tumor model L1210 Leukemia (intraperitoneal) in B6D2F1 (BDF1) mice
Conditions: endpoint: mean survival time, higher = longer survival
How it was run: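 Transplanted-tumor mice were given test agent; controls received vehicle only. Survival readings from the two groups were divided (treated over control).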

[1] = dose: 50.0 mg/kg/injection, schedule: Q04DX003 (ip), vehicle: saline with Tween-80
[2] = dose: 100.0 mg/kg/injection, schedule: Q04DX003 (ip), vehicle: saline with Tween-80
[3] = dose: 200.0 mg/kg/injection, schedule: Q04DX003 (ip), vehicle: saline with Tween-80
[4] = dose: 100.0 mg/kg/injection, schedule: Q04DX003 (ip), vehicle: Klucel (hydroxypropylcellulose) (HPC)
[5] = dose: 100.0 mg/kg/injection, schedule: Q01DX001 (ip), vehicle: saline with Tween-80
[6] = dose: 200.0 mg/kg/injection, schedule: Q01DX001 (ip), vehicle: saline with Tween-80
[7] = dose: 400.0 mg/kg/injection, schedule: Q01DX001 (ip), vehicle: saline with Tween-80
[8] = dose: 100.0 mg/kg/injection, schedule: Q01DX001 (ip), vehicle: saline
[9] = dose: 200.0 mg/kg/injection, schedule: Q01DX001 (ip), vehicle: saline
[10] = dose: 400.0 mg/kg/injection, schedule: Q01DX001 (ip), vehicle: saline

Q: `CN=C(N)c1ccc(NC(=O)c2ccc(C(=O)Nc3ccc(C(N)=NC)cc3)cc2)cc1` was tested. Which T/C (dose: 1.9 mg/kg/injection, schedule: Q01DX Z (ip), vehicle: methylcellulose (MC)) did it give?
A: The T/C was 102 % of control.

Q: And the T/C (dose: 2.0 mg/kg/injection, schedule: Q01DX006 (iv), vehicle: saline)?
A: The T/C was 104 % of control.

Q: And the T/C (dose: 2.0 mg/kg/injection, schedule: Q01DX Z (sc), vehicle: saline)?
A: Its T/C is 101 % of control.

Q: And the T/C (dose: 2.0 mg/kg/injection, schedule: Q02DX004 (im), vehicle: saline)?
A: The T/C was 103 % of control.

Q: What about the T/C (dose: 3.75 mg/kg/injection, schedule: Q01DX Z (ip), vehicle: methylcellulose (MC)) of the same compound?
A: Its T/C is 124 % of control.

Q: And the T/C (dose: 4.0 mg/kg/injection, schedule: Q01DX006 (iv), vehicle: saline)?
A: Its T/C is 103 % of control.

Q: And the T/C (dose: 4.0 mg/kg/injection, schedule: Q01DX Z (sc), vehicle: saline)?
A: Its T/C is 97 % of control.

Q: And the T/C (dose: 4.0 mg/kg/injection, schedule: Q02DX004 (im), vehicle: saline)?
A: Its T/C is 103 % of control.

Q: And the T/C (dose: 5.5 mg/kg/injection, schedule: Q01DX Z (ip), vehicle: methylcellulose (MC))?
A: The T/C was 177 % of control.

Q: And the T/C (dose: 8.0 mg/kg/injection, schedule: Q01DX006 (iv), vehicle: saline)?
A: Its T/C is 106 % of control.

Q: And the T/C (dose: 8.0 mg/kg/injection, schedule: Q01DX010 (oral), vehicle: saline)?
A: Its T/C is 106 % of control.

Q: And the T/C (dose: 8.0 mg/kg/injection, schedule: Q01DX Z (sc), vehicle: saline)?
A: The T/C was 94 % of control.

Q: And the T/C (dose: 8.0 mg/kg/injection, schedule: Q02DX004 (im), vehicle: saline)?
A: Its T/C is 108 % of control.

Q: And the T/C (dose: 15.0 mg/kg/injection, schedule: Q01DX Z (ip), vehicle: methylcellulose (MC))?
A: Its T/C is 150 % of control and 156 % of control.

Q: And the T/C (dose: 16.0 mg/kg/injection, schedule: Q01DX010 (oral), vehicle: saline)?
A: The T/C was 97 % of control.

Q: What about the T/C (dose: 16.0 mg/kg/injection, schedule: Q01DX Z (sc), vehicle: saline) of the same compound?
A: Its T/C is 98 % of control.

Q: And the T/C (dose: 16.0 mg/kg/injection, schedule: Q02DX004 (im), vehicle: saline)?
A: Its T/C is 108 % of control.

Q: And the T/C (dose: 30.0 mg/kg/injection, schedule: Q01DX Z (ip), vehicle: methylcellulose (MC))?
A: The T/C was 171 % of control and 173 % of control.

Q: And the T/C (dose: 32.0 mg/kg/injection, schedule: Q01DX010 (oral), vehicle: saline)?
A: The T/C was 97 % of control.

Q: What about the T/C (dose: 42.4 mg/kg/injection, schedule: Q01DX007 (oral), vehicle: carboxymethylcellulose (CMC)) of the same compound?
A: The T/C was 100 % of control.

Q: And the T/C (dose: 60.0 mg/kg/injection, schedule: Q01DX Z (ip), vehicle: methylcellulose (MC))?
A: The T/C was 174 % of control.

Q: What about the T/C (dose: 64.0 mg/kg/injection, schedule: Q01DX007 (oral), vehicle: carboxymethylcellulose (CMC)) of the same compound?
A: Its T/C is 105 % of control.

Q: What about the T/C (dose: 64.0 mg/kg/injection, schedule: Q01DX010 (oral), vehicle: saline) of the same compound?
A: The T/C was 103 % of control.

Q: What about the T/C (dose: 96.0 mg/kg/injection, schedule: Q01DX007 (oral), vehicle: carboxymethylcellulose (CMC)) of the same compound?
A: Its T/C is 103 % of control.

Q: And the T/C (dose: 120.0 mg/kg/injection, schedule: Q01DX Z (ip), vehicle: methylcellulose (MC))?
A: The T/C was 108 % of control.

Q: And the T/C (dose: 144.0 mg/kg/injection, schedule: Q01DX007 (oral), vehicle: carboxymethylcellulose (CMC))?
A: Its T/C is 108 % of control.

Q: And the T/C (dose: 150.0 mg/kg/injection, schedule: Q01DX Z (oral), vehicle: saline)?
A: The T/C was 100 % of control.

Q: What about the T/C (dose: 300.0 mg/kg/injection, schedule: Q01DX Z (oral), vehicle: saline) of the same compound?
A: Its T/C is 93 % of control.

Q: What about the T/C (dose: 600.0 mg/kg/injection, schedule: Q01DX Z (oral), vehicle: saline) of the same compound?
A: The T/C was 115 % of control.

Q: With `O=C1C(=O)c2ccccc2C([O-])=C1[n+]1ccccc1` as the compound, how does the T/C (dose: 50.0 mg/kg/injection, schedule: Q01DX009 (ip), vehicle: saline with Tween-80) read?
A: Its T/C is 97 % of control.

Q: And the T/C [1]?
A: The T/C was 103 % of control.

Q: And the T/C (dose: 100.0 mg/kg/injection, schedule: Q01DX009 (ip), vehicle: saline with Tween-80)?
A: The T/C was 95 % of control.

Q: And the T/C [2]?
A: Its T/C is 97 % of control.

Q: And the T/C (dose: 200.0 mg/kg/injection, schedule: Q01DX009 (ip), vehicle: saline with Tween-80)?
A: Its T/C is 93 % of control.

Q: And the T/C [3]?
A: Its T/C is 98 % of control.

Q: For `CC(c1ccccc1)n1ccnc1CO` (stereo not drawn), which T/C (dose: 50.0 mg/kg/injection, schedule: Q01DX009 (ip), vehicle: Klucel (hydroxypropylcellulose) (HPC)) is on record?
A: Its T/C is 103 % of control and 112 % of control.

Q: And the T/C (dose: 50.0 mg/kg/injection, schedule: Q04DX003 (ip), vehicle: Klucel (hydroxypropylcellulose) (HPC))?
A: The T/C was 98 % of control.

Q: And the T/C (dose: 100.0 mg/kg/injection, schedule: Q01DX009 (ip), vehicle: Klucel (hydroxypropylcellulose) (HPC))?
A: The T/C was 102 % of control and 115 % of control.

Q: What about the T/C [4] of the same compound?
A: Its T/C is 106 % of control.

Q: And the T/C (dose: 200.0 mg/kg/injection, schedule: Q01DX009 (ip), vehicle: Klucel (hydroxypropylcellulose) (HPC))?
A: Its T/C is 98 % of control.

Q: Which T/C (dose: 25.0 mg/kg/injection, schedule: Q04DX002 (ip), vehicle: Klucel (hydroxypropylcellulose) (HPC)) does the source give for `NC(CCl)=NCC1CCCCCC1` here?
A: The T/C was 107 % of control.

Q: What about the T/C (dose: 50.0 mg/kg/injection, schedule: Q04DX002 (ip), vehicle: Klucel (hydroxypropylcellulose) (HPC)) of the same compound?
A: Its T/C is 100 % of control.

Q: What about the T/C (dose: 100.0 mg/kg/injection, schedule: Q04DX002 (ip), vehicle: Klucel (hydroxypropylcellulose) (HPC)) of the same compound?
A: Its T/C is 101 % of control.

Q: How did the T/C [5] turn out when `CC(C)(C)C1CCC2OC(C)(C(C)(C)C)CC(C(C)(C)C)C2C1` (stereo not drawn) was run?
A: The T/C was 100 % of control.

Q: And the T/C [6]?
A: The T/C was 100 % of control.

Q: And the T/C [7]?
A: The T/C was 95 % of control.

Q: `Nc1nc(-c2ccc([N+](=O)[O-])cc2)cc(=O)[nH]1` was tested. Which T/C [5] did it give?
A: Its T/C is 98 % of control.

Q: What about the T/C [6] of the same compound?
A: Its T/C is 93 % of control.

Q: What about the T/C [7] of the same compound?
A: Its T/C is 92 % of control.

Q: How did the T/C (dose: 25.0 mg/kg/injection, schedule: Q01DX001 (sc), vehicle: steriod suspending solution) turn out when `C[C@H]1C[C@H]2[C@@H]3CC[C@](O)(C(=O)CO)[C@@]3(C)C[C@H](O)[C@]2(F)[C@@]2(C)C=CC(=O)C=C12` was run?
A: The T/C was 103 % of control.

Q: And the T/C (dose: 50.0 mg/kg/injection, schedule: Q01DX001 (sc), vehicle: steriod suspending solution)?
A: The T/C was 100 % of control.

Q: What about the T/C (dose: 50.0 mg/kg/injection, schedule: Q04DX003 (sc), vehicle: Klucel (hydroxypropylcellulose) (HPC)) of the same compound?
A: The T/C was 88 % of control.

Q: And the T/C (dose: 100.0 mg/kg/injection, schedule: Q01DX001 (sc), vehicle: steriod suspending solution)?
A: Its T/C is 94 % of control.

Q: What about the T/C (dose: 100.0 mg/kg/injection, schedule: Q04DX003 (sc), vehicle: Klucel (hydroxypropylcellulose) (HPC)) of the same compound?
A: The T/C was 98 % of control.

Q: And the T/C (dose: 200.0 mg/kg/injection, schedule: Q01DX001 (sc), vehicle: steriod suspending solution)?
A: The T/C was 98 % of control.

Q: And the T/C (dose: 200.0 mg/kg/injection, schedule: Q04DX003 (sc), vehicle: Klucel (hydroxypropylcellulose) (HPC))?
A: The T/C was 90 % of control.

Q: What does the source list for `C=C=CC(C)(C)C`?
A: T/C [8]: 96 % of control; T/C [9]: 96 % of control; T/C (dose: 200.0 mg/kg/injection, schedule: Q04DX003 (ip), vehicle: saline): 100 % of control; T/C [10]: 96 % of control; T/C (dose: 400.0 mg/kg/injection, schedule: Q04DX003 (ip), vehicle: saline): 100 % of control

Q: Which results are given for `CC(=O)c1ccccc1OCC(O)CN1CCN(c2cccc(C(F)(F)F)c2)CC1` (stereo not drawn)?
A: T/C [2]: 106 % of control; T/C [3]: 108 % of control; T/C (dose: 400.0 mg/kg/injection, schedule: Q04DX003 (ip), vehicle: saline with Tween-80): 108 % of control

Q: Which results are given for `O=C1c2ccccc2C(=O)c2c1ccc1c2[nH]c2ccccc21`?
A: T/C (dose: 100.0 mg/kg/injection, schedule: Q01DX001 (ip), vehicle: carboxymethylcellulose (CMC)): 86 % of control; T/C (dose: 200.0 mg/kg/injection, schedule: Q01DX001 (ip), vehicle: carboxymethylcellulose (CMC)): 91 % of control; T/C (dose: 400.0 mg/kg/injection, schedule: Q01DX001 (ip), vehicle: carboxymethylcellulose (CMC)): 89 % of control

Q: What does the source list for `Cc1cc(CCl)c(C)cc1CCl`?
A: T/C (dose: 25.0 mg/kg/injection, schedule: Q04DX003 (ip), vehicle: saline with Tween-80): 96 % of control; T/C [1]: 90 % of control

Q: What does the source list for `Ic1ncnc2c1ncn2C1CCCCO1` (stereo not drawn)?
A: T/C (dose: 31.0 mg/kg/injection, schedule: Q01DX Z (ip), vehicle: other): 111 % of control; T/C (dose: 62.0 mg/kg/injection, schedule: Q01DX Z (ip), vehicle: other): 109 % of control; T/C [8]: 98 % of control; T/C (dose: 100.0 mg/kg/injection, schedule: Q01DX009 (ip), vehicle: saline sonified): 96 % of control; T/C [4]: 93 % of control; T/C (dose: 125.0 mg/kg/injection, schedule: Q01DX Z (ip), vehicle: other): 103 % of control; T/C [9]: 107 % of control; T/C (dose: 200.0 mg/kg/injection, schedule: Q01DX009 (ip), vehicle: saline sonified): 93 % of control; T/C (dose: 200.0 mg/kg/injection, schedule: Q04DX003 (ip), vehicle: Klucel (hydroxypropylcellulose) (HPC)): 94 % of control; T/C (dose: 250.0 mg/kg/injection, schedule: Q01DX Z (ip), vehicle: other): 111 % of control; T/C (dose: 375.0 mg/kg/injection, schedule: Q01DX Z (ip), vehicle: other): 114 % of control; T/C [10]: 104 % of control; T/C (dose: 400.0 mg/kg/injection, schedule: Q04DX003 (ip), vehicle: Klucel (hydroxypropylcellulose) (HPC)): 98 % of control; T/C (dose: 500.0 mg/kg/injection, schedule: Q01DX Z (ip), vehicle: other): 121 % of control
